Test results published in US10782295B2, “Cysteine-reactive ligand discovery in proteomes” (THE SCRIPPS RESEARCH INSTITUTE, priority 2013, dated 2020).

Columns and labels:
C22A-ZAK = target: T1, C22A-ZAK (Homo sapiens, UniProt Q9NYL2, C22A); experiment: in-gel fluorescence labeling by HNEyne probe; assay type: binding; details: in vitro (10 μM) and in living cells (5 μM), 1 hour
T1 construct: Full-length cDNA encoding human ZAK-13 (BC001401); expressed in transfected cells
Description: (§1) The gel signals for IA-labeling of WT-ZAK were blocked by pretreatment with HNE over a concentration range that closely matched the HNE-sensitivity profile observed for C22 in competitive isoTOP-ABPP experiments (FIG. 4b, compare to FIG. 3a). […] Considering further that C22 is predicted to reside adjacent to the ATP-binding loop of ZAK, we postulated that the HNE-induced loss of kinase activity might be due to blockade of ATP-binding.
(§2) 50 μL of soluble lysate (1 mg/mL in PBS) of […] cells transfected with mock ZAKWT and ZAK-C22A was labeled with 10 μM of HNEyne4 (Cayman Chemicals, 1 μL of 500 μM stock in ethanol) for 1 hour at room temperature. Cycloaddition was performed with 200 μM rhodamine-azide, 1 mM TCEP, 100 μM TBTA ligand and 1 mM CuSO4. The reaction was allowed to proceed at room temperature for 1 hour before quenching with 20 μL of 4×SDS-PAGE loading buffer (reducing). Quenched reactions were separated by SDS-PAGE (40 μL of sample/lane) and visualized in-gel using a fluorescence scanner. For the in situ HNEyne labeling, WT- and C22A-ZAK transfected cells were grown in a 6-well plate to 100% confluency and switched into 1 mL of serum-free DMEM medium. […] 50 μL of soluble lysates were subjected to the cycloaddition protocol as described above and probe labeling was monitored by in-gel fluorescence.

WT-ZAK = target: T2, WT-ZAK (Homo sapiens, UniProt Q9NYL2); experiment: in-gel fluorescence labeling by HNEyne probe; assay type: binding; details: in vitro (10 μM) and in living cells (5 μM), 1 hour
T2 construct: Full-length cDNA encoding human ZAK-13 (BC001401); expressed in transfected cells
Description: as §1, §2

T1 sequence (Q9NYL2 1-455 isoform Q9NYL2-2 C22A): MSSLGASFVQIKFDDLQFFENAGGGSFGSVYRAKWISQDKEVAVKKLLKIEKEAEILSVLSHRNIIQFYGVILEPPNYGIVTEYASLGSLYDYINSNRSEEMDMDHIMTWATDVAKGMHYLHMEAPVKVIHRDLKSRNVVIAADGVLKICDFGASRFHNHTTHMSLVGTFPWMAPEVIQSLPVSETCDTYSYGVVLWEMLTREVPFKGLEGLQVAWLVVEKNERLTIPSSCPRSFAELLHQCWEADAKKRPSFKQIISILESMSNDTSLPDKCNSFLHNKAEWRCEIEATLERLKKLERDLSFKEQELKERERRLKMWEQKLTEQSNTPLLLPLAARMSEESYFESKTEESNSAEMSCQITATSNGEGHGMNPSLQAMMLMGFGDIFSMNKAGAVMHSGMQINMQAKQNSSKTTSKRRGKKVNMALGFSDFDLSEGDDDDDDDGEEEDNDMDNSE
T2 sequence (Q9NYL2 1-455 isoform Q9NYL2-2): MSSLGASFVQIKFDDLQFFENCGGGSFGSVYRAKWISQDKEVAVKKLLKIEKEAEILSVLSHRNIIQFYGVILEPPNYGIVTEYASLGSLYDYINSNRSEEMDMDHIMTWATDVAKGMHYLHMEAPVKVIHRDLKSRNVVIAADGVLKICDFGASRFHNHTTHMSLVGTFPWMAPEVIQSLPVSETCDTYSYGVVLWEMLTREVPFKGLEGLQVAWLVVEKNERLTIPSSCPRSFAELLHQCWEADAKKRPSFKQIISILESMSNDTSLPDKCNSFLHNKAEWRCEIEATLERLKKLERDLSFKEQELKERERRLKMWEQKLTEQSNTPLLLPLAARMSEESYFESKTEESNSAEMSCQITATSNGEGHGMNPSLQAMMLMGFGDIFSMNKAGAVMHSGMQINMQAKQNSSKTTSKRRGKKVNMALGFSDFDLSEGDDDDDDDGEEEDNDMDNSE

probe labeling of C22A-ZAK mutant (C22A-ZAK): but not the C22A-ZAK mutant | probe labeling of WT-ZAK (WT-ZAK): direct labeling
SMILES: C#CCCCC(O)C=CC=O (centres unmarked) [HNEyne]
